From ChEMBL document CHEMBL3045291, “Synthesis and evaluation of new potent inhibitors of CK1 and CDK5, two kinases involved in Alzheimers disease” (Med Chem Res, 2013)
pIC50: −log10 of the molar value.

How the values were obtained:
[1] = target: Cyclin-dependent kinase 5/CDK5 activator 1 (Homo sapiens, UniProt Q00535); test: Inhibition of human recombinant CDK5/p25 using histone H1 and [gamma33P]ATP as substrate after 30 min by scintillation counting; type: protein-complex assay
[2] = target: Cyclin-dependent kinase 2/cyclin A (Homo sapiens, UniProt P24941); test: Inhibition of human recombinant CDK2/cyclin A using histone H1 and [gamma33P]ATP as substrate after 30 min by scintillation counting; type: protein-complex assay
[3] = target: Glycogen synthase kinase-3 (Sus scrofa, UniProt B2LUN4+I6LNT8); test: Inhibition of Sus scrofa (pig) glycogen synthase kinase 3alpha/beta isolated from brain using YRRAAVPPSPSLSRHSSPHQpSEDEEE and [gamma33P]ATP as substrate after 30 min by liquid scintillation counting
[4] = target: T1, G2/mitotic-specific cyclin-B (Asterina pectinifera, UniProt P18063); test: Inhibition of Asteroidea (starfish) Cyclin-dependent kinase 1/cyclin B isolated from oocyte using histone H1 and [gamma33P]ATP as substrate after 30 min by scintillation counting
T1 sequence (P18063 whole entry): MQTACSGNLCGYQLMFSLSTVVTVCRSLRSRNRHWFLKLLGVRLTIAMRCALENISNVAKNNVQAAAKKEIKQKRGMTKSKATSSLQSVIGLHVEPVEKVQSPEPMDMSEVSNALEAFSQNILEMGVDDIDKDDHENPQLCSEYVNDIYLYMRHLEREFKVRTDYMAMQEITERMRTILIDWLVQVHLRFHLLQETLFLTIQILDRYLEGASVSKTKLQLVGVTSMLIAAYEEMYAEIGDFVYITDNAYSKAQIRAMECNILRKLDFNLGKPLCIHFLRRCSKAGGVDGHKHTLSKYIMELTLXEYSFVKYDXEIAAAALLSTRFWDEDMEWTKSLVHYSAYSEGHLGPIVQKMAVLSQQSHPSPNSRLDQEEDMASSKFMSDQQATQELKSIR

[5] = target: Casein kinase 1, delta tv1 (Sus scrofa, UniProt M3VH47); test: Inhibition of Sus scrofa (pig) casein kinase 1delta/epsilon isolated from brain using RRKHAAIGpSAYSITA and [gamma33P]ATP as substrate after 30 min by scintillation counting
Casein kinase 1, delta tv1, sequence (M3VH47 whole entry): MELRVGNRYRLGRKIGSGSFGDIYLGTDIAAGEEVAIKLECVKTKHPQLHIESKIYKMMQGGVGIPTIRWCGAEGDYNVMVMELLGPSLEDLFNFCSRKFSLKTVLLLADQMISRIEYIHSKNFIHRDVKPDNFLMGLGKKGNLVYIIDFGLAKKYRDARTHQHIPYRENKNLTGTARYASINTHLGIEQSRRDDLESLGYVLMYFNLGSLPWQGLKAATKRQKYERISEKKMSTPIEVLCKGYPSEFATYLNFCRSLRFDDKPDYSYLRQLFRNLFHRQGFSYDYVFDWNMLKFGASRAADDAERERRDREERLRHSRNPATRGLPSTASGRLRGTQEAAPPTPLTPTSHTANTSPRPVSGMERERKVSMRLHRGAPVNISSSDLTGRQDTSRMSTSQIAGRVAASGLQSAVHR

[6] = target: Dual specificity tyrosine-phosphorylation-regulated kinase 1A (Homo sapiens, UniProt Q13627); test: Inhibition of Homo sapiens (human) recombinant GST-tagged DYRK1A expressed in Escherichia coli using KKISGRLSPIMTEQ and [gamma33P]ATP as substrate after 30 min by scintillation counting
[7] = target: Cyclin-dependent kinase 5 (Homo sapiens, UniProt Q00535); test: Inhibition of CDK5 (unknown origin)
Cyclin-dependent kinase 5, sequence (Q00535 whole entry): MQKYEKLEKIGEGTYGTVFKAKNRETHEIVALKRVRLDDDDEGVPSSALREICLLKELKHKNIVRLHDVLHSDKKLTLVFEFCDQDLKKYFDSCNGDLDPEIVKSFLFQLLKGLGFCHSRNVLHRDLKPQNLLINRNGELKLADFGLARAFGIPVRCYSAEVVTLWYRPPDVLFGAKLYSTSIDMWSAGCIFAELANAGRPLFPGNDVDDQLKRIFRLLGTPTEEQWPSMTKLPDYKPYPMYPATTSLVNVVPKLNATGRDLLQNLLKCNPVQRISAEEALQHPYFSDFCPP

Cyclin-dependent kinase 5/CDK5 activator 1, sequence (Q00535 whole entry): as above
Cyclin-dependent kinase 5/CDK5 activator 1, sequence (Q15078 whole entry, further chain): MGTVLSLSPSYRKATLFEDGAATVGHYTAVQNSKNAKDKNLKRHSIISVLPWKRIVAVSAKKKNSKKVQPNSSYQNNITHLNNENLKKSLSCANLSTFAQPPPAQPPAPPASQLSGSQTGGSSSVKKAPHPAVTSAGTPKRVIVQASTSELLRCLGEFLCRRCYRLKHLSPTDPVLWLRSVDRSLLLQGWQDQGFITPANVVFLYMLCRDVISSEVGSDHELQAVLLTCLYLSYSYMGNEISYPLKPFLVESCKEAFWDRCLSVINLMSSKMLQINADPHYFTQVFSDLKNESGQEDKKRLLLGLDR

| SMILES | pIC50 [1] | pIC50 [2] | pIC50 [5] | pIC50 [7] | IC50 [3] [nM] | pIC50 [4] | pIC50 [6] |
| --- | --- | --- | --- | --- | --- | --- | --- |
| CC(C)n1cnc2c(Nc3cccc(-c4ncccn4)c3)nc(Cl)nc21 | 5.72 | 5.72 | 7.22 | – | > 10000 | 5.00 | < 5.00 |
| CC(C)n1cnc2c(Nc3cccc(-c4cncnc4)c3)nc(Cl)nc21 | 6.00 | – | 6.42 | – | > 10000 | – | – |
| CC(C)n1cnc2c(Nc3ccc(-c4cncnc4)cc3)nc(Cl)nc21 | 5.68 | 5.96 | 6.39 | – | > 10000 | – | – |
| CC(C)n1cnc2c(Nc3cccc(-c4ncccn4)c3)nc(NC(CO)CO)nc21 | 6.21 | – | 7.15 | – | – | – | – |
| NC1=NC(=O)/C(=C2\CCNC(=O)c3[nH]c(Br)cc32)N1 [HYMENIALDISINE] | – | – | – | 7.52 | – | – | – |

Continued, in another order:

| pIC50 [1] | pIC50 [2] | pIC50 [5] | pIC50 [7] | SMILES | IC50 [3] [nM] | pIC50 [4] | pIC50 [6] |
| --- | --- | --- | --- | --- | --- | --- | --- |
| 6.96 | – | 7.30 | – | CC(C)n1cnc2c(Nc3cccc(-c4ncccn4)c3)nc(NC(C)(C)CO)nc21 | – | – | – |
| 6.96 | 6.70 | 6.30 | – | CC(C)n1cnc2c(Nc3ccc(-c4cncnc4)cc3)nc(NC(C)(C)CO)nc21 | – | – | – |
| 6.72 | 6.48 | 6.19 | – | CC(C)n1cnc2c(Nc3ccc(-c4cncnc4)cc3)nc(NC(CO)CO)nc21 | – | – | – |
| 6.96 | 6.96 | 6.49 | – | CC(C)n1cnc2c(Nc3cccc(-c4cncnc4)c3)nc(NC(C)(C)CO)nc21 | – | – | – |
